Key:
[1] = target: T1, p-Akt3 in WM115 cells (Homo sapiens, UniProt Q9Y243); assay: Phospho-Akt cellular SureFire assay, p-Akt3 in WM115 cells; format: cell-based; conditions: insulin stimulated, read-out: Biological Assay 2 IC50 (nM) Akt3 WM115
T1 construct: SureFire assays to detect cellular p-Akt1, p-Akt2 and p-Akt3 levels in WM115 cells (Akt2/3) and LNCaP cells (Akt1); endogenous in cells; host or cells: WM115 (ECACC 91061232), insulin-stimulated
From the text: (§1) Biological Assay 2: Phospho-Akt (p-Akt) Cellular SureFire Assays
(§2) The following describes SureFire assays to detect cellular p-Akt1, p-Akt2 and p-Akt3 levels in WM115 cells (Akt2/3) and LNCaP cells (Akt1). In the case of Akt2 and Akt3, Streptavidin-coated donor beads capture a biotinylated anti-mouse antibody that in turn recognises a mouse total Akt antibody which is specific to each isoform. The protein A-conjugated acceptor beads capture an antibody that recognises the phosphoprotein. Similarly in the Akt1 kit, the donor and acceptor beads are used to capture each antibody pair consisting of an antibody that specifically recognises Akt1 as well as an antibody that recognises the phosphoprotein. In each case, close proximity of the beads allows energy transfer from donor to acceptor.
(§3) Custom kit from TGR/Perkin Elmer for Akt2/3 containing anti-(pThr308)Akt antibody and biotinylated anti-mouse capture antibody.
Total Akt3 antibody (R&D Systems MAB 1463)
(§4) WM115 cells (ECACC, 91061232) cultured in MEM culture media (M2279) supplemented with 2 mM L-glutamine (G7513), 1% non-essential amino acids (M7145), 1% sodium pyruvate (S8636) and 10% FBS (F0804)
(§5) Cell treatment: 1×10^5 WM115 cells or 5×10^4 LNCaP cells were seeded into each well of a 96 well poly-D-Lysine coated tissue culture plate and incubated overnight at 37° C.+5% CO2. Media was removed from cells and replaced with assay buffer consisting of the full culture media described above but with 0.1% FBS instead of 10% FBS. Only WM115 cells were stimulated at 37° C.+5% CO2 for 10 min with 5 μL insulin at a final concentration of 100 nM. Cells were incubated with 5 μL of test compound at a final DMSO concentration of 0.3% for 15 min at 37° C.+5% CO2. Cell lysis was carried out according to kit instructions.
(§6) Assay format (performed in subdued lighting): 4 μL cell lysate and 5 μL reaction buffer were incubated together in the dark at room temperature for 2 h. Reaction buffer was supplemented with a 1/5 dilution of activation buffer, a 1/50 dilution of acceptor beads and in the case of the custom kits, antibodies were added at dilutions of 1/20,000 for Akt2 and 1/2,000 for Akt3.
(§7) 2 μL dilution buffer, supplemented with a 1/20 dilution of donor beads was added to each well and incubated for a further 2 h. Plates were read with the EnVision® Multilabel Plate Reader and using the AlphaScreen settings. Compound IC50 was determined using a 4-parameter equation.

[2] = target: T2, p-Akt1 in LNCaP cells (Homo sapiens, UniProt P31749); assay: Phospho-Akt cellular SureFire assay, p-Akt1 in LNCaP cells; format: cell-based; conditions: read-out: Biological Assay 2 IC50 (nM) Akt1 LNCaP
T2 construct: SureFire assays to detect cellular p-Akt1, p-Akt2 and p-Akt3 levels in WM115 cells (Akt2/3) and LNCaP cells (Akt1); endogenous in cells; host or cells: LNCaP (ECACC 89110211)
From the text: as §1, §2
AlphaScreen® SureFire™ Phospho-Akt1 (pThr308) Kit from Perkin Elmer (TGRA2S10K)
LNCaP cells (ECACC, 89110211) cultured in RPMI-1640 culture media (Fisher, 10665193) supplemented with 2 mM L-glutamine, 1% sodium pyruvate and 10% FBS
as §5, §6, §7

[3] = target: T3, Akt1 (Homo sapiens, UniProt P31749); assay: Akt activation assay (PDK1-mediated activation, LANCE Ultra crosstide TR-FRET), Akt1; format: biochemical; conditions: read-out: Biological Assay 1 IC50 (nM) Akt1
T3 construct: unspecified tag, removed (detagged) (cleaved yes); purchased SignalChem and Proteros (Akt1); Merck Millipore (PDK1) 14-452 (PDK1); none given for Akt1
Method in brief: (§8)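 Unactivated Akt (5 nM Akt1, 15 or 5 nM Akt2, 3 or 5 nM Akt3, by supplier) preincubated with compound, then activated by 5 nM PDK1 on DOPS/DOPC/PtdIns(3,4,5)P3 vesicles with 100 μM ATP and 100 nM Ulight-crosstide, pH 7.5, 30 min. Eu-anti-phospho-crosstide TR-FRET (665/615 nm); IC50 by 4-parameter fit.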

[4] = target: T4, Akt2 (Homo sapiens, UniProt P31751); assay: Akt activation assay (PDK1-mediated activation, LANCE Ultra crosstide TR-FRET), Akt2; format: biochemical; conditions: read-out: Biological Assay 1 IC50 (nM) Akt2
T4 construct: unspecified tag, removed (detagged) (cleaved yes); purchased SignalChem and Proteros (Akt2); Merck Millipore (PDK1) 14-452 (PDK1); none given for Akt2
Method in brief: as §8

[5] = target: T5, Akt3 (Homo sapiens, UniProt Q9Y243); assay: Akt activation assay (PDK1-mediated activation, LANCE Ultra crosstide TR-FRET), Akt3; format: biochemical; conditions: read-out: Biological Assay 1 IC50 (nM) Akt3
T5 construct: unspecified tag, removed (detagged) (cleaved yes); purchased SignalChem and Proteros (Akt3); Merck Millipore (PDK1) 14-452 (PDK1); none given for Akt3
Method in brief: as §8

[6] = target: T6, p-Akt2 in WM115 cells (Homo sapiens, UniProt P31751); assay: Phospho-Akt cellular SureFire assay, p-Akt2 in WM115 cells; format: cell-based; conditions: insulin stimulated, read-out: Biological Assay 2 IC50 (nM) Akt2 WM115
T6 construct: SureFire assays to detect cellular p-Akt1, p-Akt2 and p-Akt3 levels in WM115 cells (Akt2/3) and LNCaP cells (Akt1); endogenous in cells; host or cells: WM115 (ECACC 91061232), insulin-stimulated
From the text: as §1, §2, §3
Total Akt2 antibody (NEB UK, 5239)
as §4, §5, §6, §7

T1 sequence (Q9Y243 whole entry): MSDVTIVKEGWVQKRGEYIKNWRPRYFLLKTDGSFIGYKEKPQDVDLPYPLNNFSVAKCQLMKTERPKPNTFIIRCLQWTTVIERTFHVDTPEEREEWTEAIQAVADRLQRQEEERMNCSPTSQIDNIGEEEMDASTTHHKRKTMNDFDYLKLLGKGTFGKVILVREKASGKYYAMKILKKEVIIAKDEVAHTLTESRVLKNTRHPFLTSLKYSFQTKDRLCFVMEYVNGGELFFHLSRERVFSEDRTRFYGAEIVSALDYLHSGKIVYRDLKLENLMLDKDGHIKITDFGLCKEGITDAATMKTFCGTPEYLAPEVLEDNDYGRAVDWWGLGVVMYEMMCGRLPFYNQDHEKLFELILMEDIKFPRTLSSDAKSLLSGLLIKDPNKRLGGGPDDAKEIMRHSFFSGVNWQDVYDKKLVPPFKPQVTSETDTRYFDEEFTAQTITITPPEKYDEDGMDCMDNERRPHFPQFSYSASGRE
T5 sequence (Q9Y243 whole entry): as above
T3 sequence (P31749 whole entry): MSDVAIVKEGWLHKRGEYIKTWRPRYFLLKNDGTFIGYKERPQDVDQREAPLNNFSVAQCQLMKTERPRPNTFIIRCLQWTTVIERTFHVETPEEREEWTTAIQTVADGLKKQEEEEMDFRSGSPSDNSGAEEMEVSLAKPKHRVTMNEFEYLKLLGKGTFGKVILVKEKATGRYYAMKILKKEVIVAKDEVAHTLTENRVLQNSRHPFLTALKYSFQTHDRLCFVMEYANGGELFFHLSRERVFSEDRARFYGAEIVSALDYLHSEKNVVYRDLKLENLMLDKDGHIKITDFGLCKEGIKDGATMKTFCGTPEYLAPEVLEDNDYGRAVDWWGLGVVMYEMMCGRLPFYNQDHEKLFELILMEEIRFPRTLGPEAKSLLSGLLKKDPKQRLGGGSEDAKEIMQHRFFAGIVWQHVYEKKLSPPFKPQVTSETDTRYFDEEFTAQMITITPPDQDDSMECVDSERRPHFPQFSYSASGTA
T2 sequence (P31749 whole entry): as above
T4 sequence (P31751 whole entry): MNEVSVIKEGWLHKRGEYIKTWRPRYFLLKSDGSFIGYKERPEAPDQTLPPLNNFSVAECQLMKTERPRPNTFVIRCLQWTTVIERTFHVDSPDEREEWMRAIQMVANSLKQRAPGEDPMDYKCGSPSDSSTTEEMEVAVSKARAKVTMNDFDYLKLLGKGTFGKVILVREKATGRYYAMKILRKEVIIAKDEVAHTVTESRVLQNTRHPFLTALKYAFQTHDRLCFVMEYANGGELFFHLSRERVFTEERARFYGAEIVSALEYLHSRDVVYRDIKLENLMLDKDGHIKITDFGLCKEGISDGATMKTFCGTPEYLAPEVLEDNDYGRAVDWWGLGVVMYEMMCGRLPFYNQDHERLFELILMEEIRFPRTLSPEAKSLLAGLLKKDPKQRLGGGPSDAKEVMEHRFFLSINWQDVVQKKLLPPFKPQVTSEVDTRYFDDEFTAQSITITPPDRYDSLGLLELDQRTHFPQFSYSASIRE
T6 sequence (P31751 whole entry): as above

IC50 [1] [nM] | IC50 [2] [nM] | IC50 [3] [nM] | IC50 [4] [nM] | IC50 [5] [nM] | IC50 [6] [nM] | SMILES
240 | > 30000 | > 25000 | 590 | 22 | – | COC(=O)N(C)[C@H]1CC[C@H](CC(=O)Nc2cc(-c3ccccc3)c(-c3ccc(C4(N)CC4)cc3)nn2)CC1 [Example A77, Methyl (trans-4-(2-((6-(4-(1-aminocyclopropyl)phenyl)-5-phenylpyridazin-3-yl)amino)-2-oxoethyl)cyclohexyl)(methyl)carbamate]
410 | > 30000 | 6400 | 860 | 99 | – | C[C@]1(O)C[C@@](N)(c2ccc(-c3nnc(NC(=O)C[C@H]4CC[C@H](N5CCOC5=O)CC4)nc3-c3ccccc3F)cc2)C1 [Example 68, N-(6-(4-(trans-1-amino-3-hydroxy-3-methylcyclobutyl)phenyl)-5-(2-fluorophenyl)-1,2,4-triazin-3-yl)-2-(trans-4-(2-oxooxazolidin-3-yl)cyclohexyl)acetamide]
360 | > 30000 | > 30000 | 2300 | 170 | – | COC(=O)N(C)[C@H]1CC[C@H](CC(=O)Nc2cnc(-c3ccc(C4(N)CC4)c(F)c3)c(-c3ccccc3)c2)CC1 [Example 62, Methyl (trans-4-(2-((6-(4-(1-aminocyclopropyl)-3-fluorophenyl)-5-phenylpyridin-3-yl)amino)-2-oxoethyl)cyclohexyl)(methyl)carbamate]
260 | > 30000 | > 30000 | 7000 | 440 | – | CC(C)(N)c1ccc(-c2ncc(NC(=O)C[C@H]3CC[C@H](N4CCCCC4=O)CC3)cc2-c2ccccc2)cc1 [Example 28, N-(6-(4-(2-aminopropan-2-yl)phenyl)-5-phenylpyridin-3-yl)-2-(trans-4-(2-oxopiperidin-1-yl)cyclohexyl)acetamide]
1000 | – | 1500 | 420 | 62 | 12000 | Cc1nncn1[C@H]1CC[C@H](CC(=O)Nc2cnc(-c3ccc(C4(N)CCC4)cc3)c(-c3ccccc3)c2)CC1 [Example A17, N-(6-(4-(1-aminocyclobutyl)phenyl)-5-phenylpyridin-3-yl)-2-(trans-4-(3-methyl-1,2,4-triazol-4-yl)cyclohexyl)acetamide]
15 | – | > 30000 | 330 | 24 | 1000 | CCC(=O)N(CC)[C@H]1CC[C@H](CC(=O)Nc2cc(-c3ccccc3)c(-c3ccc([C@]4(N)C[C@](C)(O)C4)cc3)cn2)CC1 [Example 115, N-(trans-4-(2-((5-(4-(trans-1-amino-3-hydroxy-3-methylcyclobutyl)phenyl)-4-phenylpyridin-2-yl)amino)-2-oxoethyl)cyclohexyl)-N-ethylpropionamide]
43 | – | 11000 | 270 | 7 | 1300 | CC(=O)N(C)[C@H]1CC[C@H](CC(=O)Nc2cc(-c3ccccc3)c(-c3ccc(C4(N)CCC4)cc3)nn2)CC1 [Example A56, N-(6-(4-(1-aminocyclobutyl)phenyl)-5-phenylpyridazin-3-yl)-2-(trans-4-(N-methylacetamido)cyclohexyl)acetamide]
140 | – | 6900 | 530 | 280 | 2900 | CC(=O)N(C(C)C)[C@H]1CC[C@H](CC(=O)Nc2cnc(-c3ccc(C4(N)CCC4)cc3)c(-c3ccccc3)c2)CC1 [Example 49, N-(6-(4-(1-aminocyclobutyl)phenyl)-5-phenylpyridin-3-yl)-2-(trans-4-(N-isopropylacetamido)cyclohexyl)acetamide]
13 | – | > 30000 | 220 | 12 | 780 | CN(C(=O)C(F)F)[C@H]1CC[C@H](CC(=O)Nc2cc(-c3ccccc3)c(-c3ccc([C@]4(N)C[C@](C)(O)C4)cc3)cn2)CC1 [Example 109, N-(trans-4-(2-((5-(4-(trans-1-amino-3-hydroxy-3-methylcyclobutyl)phenyl)-4-phenylpyridin-2-yl)amino)-2-oxoethyl)cyclohexyl)-2,2-difluoro-N-methylacetamide]
13 | – | 20000 | 120 | 11 | 550 | CC(=O)N(C)[C@H]1CC[C@H](CC(=O)Nc2cc(-c3ccccc3F)c(-c3ccc([C@]4(N)C[C@](C)(O)C4)cc3)cn2)CC1 [Example 94, N-(5-(4-(trans-1-amino-3-hydroxy-3-methylcyclobutyl)phenyl)-4-(2-fluorophenyl)pyridin-2-yl)-2-(trans-4-(N-methylacetamido)cyclohexyl)acetamide]
180 | – | 10000 | 300 | 15 | 4700 | CCOC(=O)N(C)[C@H]1CC[C@H](CC(=O)Nc2cc(-c3ccsc3)c(-c3ccc([C@]4(N)C[C@](C)(O)C4)cc3)cn2)CC1 [Example A90, Ethyl (trans-4-(2-((5-(4-(trans-1-amino-3-hydroxy-3-methylcyclobutyl)phenyl)-4-(thiophen-3-yl)pyridin-2-yl)amino)-2-oxoethyl)cyclohexyl)(methyl)carbamate]
160 | – | > 19000 | 100 | 14 | 2300 | CCC(=O)N(C)[C@H]1CC[C@H](CC(=O)Nc2cc(-c3ccccc3F)c(-c3ccc(C4(N)CCC4)cc3)cn2)CC1 [Example A102, N-(trans-4-(2-((5-(4-(1-aminocyclobutyl)phenyl)-4-(2-fluorophenyl)pyridin-2-yl)amino)-2-oxoethyl)cyclohexyl)-N-methylpropionamide]
46 | – | 11000 | 440 | 100 | 2600 | CC(=O)N(C)[C@H]1CC[C@H](CC(=O)Nc2cc(-c3ccccc3)c(-c3ccc([C@]4(N)C[C@H](F)C4)cc3)nn2)CC1 [Example 46, N-(6-(4-(trans-1-amino-3-fluorocyclobutyl)phenyl)-5-phenylpyridazin-3-yl)-2-(trans-4-(N-methylacetamido)cyclohexyl)acetamide]
1700 | > 30000 | – | – | – | > 30000 | COC(=O)N(C)[C@H]1CC[C@H](CC(=O)Nc2cc(-c3ccccc3)c(-c3ccc(C(C)(C)N)cc3)cn2)CC1 [Example A48, Methyl (trans-4-(2-((5-(4-(2-aminopropan-2-yl)phenyl)-4-phenylpyridin-2-yl)amino)-2-oxoethyl)cyclohexyl)(methyl)carbamate]

— patent US10336702B2, “Pharmaceutically active compounds” (BERGENBIO ASA, priority 2015, dated 2019)
